Test results reported in US10280179B2, “Spiroquinoxaline derivatives as inhibitors of non-apoptotic regulated cell-death” (Helmholtz Zentrum Munchen—Deutches Forschungszentrum Fur …, priority 2013, dated 2019).
Like-named read-outs stand apart in the source and are kept apart here.

Assays:
Assay type in all cases: cell-based
[1] = Cellular toxicity, same assay as Example B.4 without TAM (Example B.5); details: mouse; Pfa1 cells without TAM; read-out: TC50 (the source's name)
Text: Cellular Toxicity of Compounds of the Invention
An estimate of the toxicity for compounds of the invention was obtained by using the same assay as described in Example B.4, but without the addition of TAM. […] Such TC50 values obtained for certain compounds disclosed herein, together with an approximate therapeutic window (estimated by dividing each TC50 by the corresponding IC50 determined from example B.4) are shown in Table 3.

[2] = system: human neuroblastoma cell line SH-SY5Y; assay: Inhibition of BSO-induced non-apoptotic cell death (Example B.1); details: SH-SY5Y cells, 72 hours
Text: Inhibition of BSO-Induced Non-Apoptotic Cell Death by Compounds Disclosed Herein
L-Buthionine sulfoximine (BSO) is a well-known glutathione (GSH) depletory, which inhibits gamma-glutamyl-cysteine-synthetase, the enzyme catalyzing the rate-limiting step in GSH biosynthesis. The human neuroblastoma cell line SH-SY5Y is sensitive to BSO-induced intracellular glutathione depletion, which causes high levels of reactive oxygen species (ROS) and cellular stress mimicking cellular conditions following ischemia (cf., e.g., Yamada et al., Neurochem. Int. 59:1003-9 (2011)).
Compounds disclosed herein were evaluated for their ability to promote cell survival upon administration of a lethal dose of BSO to cell-culture medium. Briefly, SH-SY5Y cells (ATCC® CRL-2266™) were propagated in DMEM supplemented with 10% FBS/1% Penicillin-Streptomycin, and then seeded onto 96-well plates at a concentration of 750 cells/well in 100 μL of media, to which BSO (Sigma Aldrich) was added (to a final concentration of 50 μM) together with increasing concentrations of the compound to be tested, and the plates incubated at 37° C./5% CO2 for 72 hours. Compound dilutions (0.5 pM to 100 μM) were prepared from 10 mM stocks dissolved in DMSO and diluted in media. Cells treated with BSO alone were used as negative control and alpha-Tocopherol (Sigma Aldrich) was used as positive control. Compound concentrations were tested in triplicate. After incubation, cell survival was detected using the live/dead cell assay AquaBluer™ (MultiTarget Pharmaceuticals) and quantified using a fluorescence plate reader (excitation filter: 530-560 nm/emission filter: 590 nm) (SpectraMax M4; Molecular Devices). Fluorescence data so obtained was normalised to the percentage of surviving cells and IC50 values calculated using the GraphPad Prism (GraphPad Software, Inc) software package.

Pfa1 cells = assay: Inhibition of non-apoptotic cell death after tamoxifen-induced GPx4 knockout in a recombinant cell line (Example B.4); details: Mus musculus, read-out: Pfa1/TAM IC50
Text: Inhibition of Non-Apoptotic Cell-Death by Compounds Disclosed Herein Using a Recombinant Cell Line
To combat high intracellular ROS levels, mammalian cells have evolved an intricate network of ROS scavenging in cells, in which the thioredoxin and glutathione (GSH) dependent systems prevail. […] Knockout of GPx4 in neurons causes massive neurodegeneration in cortical, cerebellar and hippocampal neurons underscoring the high relevance of ROS-induced cell death signaling in the brain. Briefly, immortalised fibroblasts from these mice were made to contain tamoxifen-inducible CreERT2, which catalyzes the functional ablation of both copies of GPx4 and resulting in a complete knockout of GPx4, a massive ROS burst, and cell death in cell culture. These cells (Pfa1 cells) were used to characterize compounds of the present invention, whereby tamoxifen (TAM) was given on day 0 along with the compound under test, and 72 hours later cell survival was evaluated using AlamarBlue.

[3] = system: mouse hippocampal cell line (Ht22); assay: Inhibition of glutamate-induced non-apoptotic cell death (Example B.2); details: HT-22, Ht22 cells
Text: Inhibition of Glutamate-Induced Non-Apoptotic Cell Death by Compounds of the Present Invention
Glutamate toxicity is conferred on cells from the mouse hippocampal cell line (Ht22) by inhibition of the cysteine/glutamate antiporter, System xc-, leading to impaired cysteine uptake and subsequent GSH depletion. This model is frequently used for mimicking glutathione depletion following oxidative stress in stroke, brain trauma and other neurodegenerative diseases and cellular conditions following ischemia (for example: van Leyen et al, J. Neurochem. 92:824-30 (2005)).
Compounds disclosed herein were evaluated for their ability to promote cell survival upon administration of a lethal dose of glutamate (GLU) to the cell-culture medium.
Briefly, Ht22 cells (ATCC) were propagated DMEM supplemented with 10% FBS/1% Penicillin-Streptomycin, and then seeded onto 96-well plates at a concentration of 2,000 cells/well in 100 μL of MEDIA, simultaneously with glutamate (Sigma Aldrich) to a final concentration of 5 mM, together with increasing concentrations of the compound to be tested (0.5 pM to 100 μM), and the plates incubated at 37° C./5% CO2 for 72 hours. Compound dilutions were prepared from 10 mM stocks dissolved in DMSO and diluted in media. Cells treated with glutamate alone were used as negative control and alpha-tocopherol (Sigma Aldrich) was used as positive control. Compound concentrations were tested in triplicate. After incubation, cell survival was detected and quantified as described in Example B.1.

[4] = 50 μM BSO, read-out: SH-SY5Y/BSO IC50
[5] = glutamate-induced cell death, read-out: Ht22/GLU

SMILES | CC50 [1] [µM] | IC50 [2, 4] [µM] | IC50 (Pfa1 cells) [µM] | IC50 [3, 5] [µM] | IC50 ([2]; BSO 50 μM, cell survival (AquaBluer), read-out: SH-SY5Y/BSO (Example B.1) IC50) [µM] | IC50 ([3]; glutamate 5 mM, 72 hours, cell survival, read-out: Ht22/GLU (Example B.2) IC50) [µM]
Clc1ccccc1CNC1=Nc2ccccc2NC12CCCCC2 [C-1] | 20 to 50 | < 0.5 | < 0.5 | < 1 |  | 
Clc1cccc(CNC2=Nc3ccccc3NC23CCCCC3)c1 [C-2] | 10 to 20 | < 0.1 | < 0.1 | < 0.5 |  | 
Cc1ccc(CNC2=Nc3ccccc3NC23CCCCC3)cc1 [C-12] | 50 to 100 | < 0.5 | < 0.5 | < 0.5 | 0.468 | 0.298
CC(=O)NC1CCC2(CC1)Nc1ccccc1N=C2NCc1cccc(Cl)c1 (centres unmarked) [C-111] | 10 to 20 | < 0.5 | < 1 | < 1 |  | 
Fc1cc2c(cc1F)NC1(CCCCC1)C(NCc1cccc(Cl)c1)=N2 [C-137] | 10 to 20 | < 0.2 | < 0.2 | < 0.2 |  | 
Clc1cccc(CNC2=Nc3ccccc3NC23CCCCCCC3)c1 [C-206] | 5 to 10 | < 0.05 | < 0.5 | < 0.5 |  | 
Fc1ccc(CNC2=Nc3ccccc3NC23CCNCC3)c(F)c1 [N-221] | 20 to 50 |  | < 0.2 | < 0.2 |  | 
CC(CCc1ccccc1)NC1=Nc2ccccc2NC12CCNCC2 (centres unmarked) [N-222] | 20 to 50 |  | < 0.2 | < 0.05 |  | 
Cc1cccc(CNC2=Nc3cc(Cl)c(Cl)cc3NC23CCNCC3)c1 [N-224] | 1 to 2 |  | < 0.01 | < 0.05 |  | 
c1ccc(CCCCNC2=Nc3ccccc3NC23CCNCC3)cc1 [N-225] | 1 to 2 |  | < 0.05 | < 1 |  | 
c1ccc(CCNC2=Nc3ccccc3NC23CCNCC3)cc1 [N-226] | 10 to 20 |  | < 0.1 | < 0.1 |  | 
CC(C)(C)c1ccc(CNC2=Nc3ccccc3NC23CCNCC3)cc1 [N-227] | 0.5 to 1 |  | < 0.01 | < 0.01 |  | 
c1ccc(CCCNC2=Nc3ccccc3NC23CCNCC3)cc1 [N-228] | 2 to 5 |  | < 0.1 | < 0.05 |  | 
CN1CCC2(CC1)Nc1cc(F)c(F)cc1N=C2NCc1ccccc1 [N-229] | 5 to 10 |  | < 0.1 | < 0.1 |  | 
Cc1cc2c(cc1C)NC1(CCNCC1)C(NCc1ccc(Cl)c(Cl)c1)=N2 [N-232] | 1 to 2 |  | < 0.01 | < 0.01 |  | 
Cc1cc2c(cc1C)NC1(CCN(C)CC1)C(NCc1ccccc1)=N2 [N-233] | 10 to 20 |  | < 0.2 | < 0.1 |  | 
CCCCCCCCN1CCC2(CC1)Nc1ccccc1N=C2NCc1ccccc1 [N-234] | 5 to 10 |  | < 0.1 | < 0.1 |  | 
Cc1cccc(CNC2=Nc3cc(C)c(C)cc3NC23CCNCC3)c1 [N-235] | 1 to 2 |  | < 0.05 | < 0.05 |  | 
Clc1cc2c(cc1Cl)NC1(CCCNCC1)C(NCc1ccccc1)=N2 (centres unmarked) [N-236] | 2 to 5 |  | < 0.1 | < 0.05 |  | 
Fc1cccc(CNC2=Nc3ccccc3NC23CCOCC3)c1 [O/S-5] | 50 to 100 |  | < 2 | < 5 |  | 
Cc1cccc(CNC2=Nc3ccccc3NC23CCOCC3)c1 [O/S-11] | 50 to 100 |  | < 2 | < 5 |  | 
COc1cccc(CNC2=Nc3ccccc3NC23CCOCC3)c1 [O/S-14] | 50 to 100 |  | < 5 | < 5 |  | 
FC(F)(F)c1cccc(CNC2=Nc3ccccc3NC23CCOCC3)c1 [O/S-23] | 20 to 50 |  | < 0.5 | < 1 |  | 

SMILES | CC50 [1] [µM] | IC50 [2, 4] [µM] | IC50 (Pfa1 cells) [µM] | IC50 [3, 5] [µM] | IC50 ([2]; BSO 50 μM, cell survival (AquaBluer), read-out: SH-SY5Y/BSO (Example B.1) IC50) [µM] | IC50 ([3]; glutamate 5 mM, 72 hours, cell survival, read-out: Ht22/GLU (Example B.2) IC50) [µM]
Fc1cc(Cl)ccc1CNC1=Nc2ccccc2NC12CCOCC2 [O/S-61] | 20 to 50 |  | < 1 | < 1 |  | 
Clc1cccc(CCNC2=Nc3ccccc3NC23CCOCC3)c1 [O/S-79] | 20 to 50 |  | < 1 | < 1 |  | 
Clc1ccccc1CNC1=Nc2ccccc2NC12CCSCC2 [O/S-167] | 20 to 50 |  | < 0.5 | < 1 |  | 
Clc1ccc(CNC2=Nc3ccccc3NC23CCSCC3)cc1 [O/S-169] | 20 to 50 |  | < 1 | < 1 |  | 
FC(F)(F)c1cccc(CNC2=Nc3ccccc3NC23CCSCC3)c1 [O/S-189] | 50 to 100 |  | < 5 | < 5 |  | 
Fc1cccc(F)c1CNC1=Nc2ccccc2NC12CCOCC2 [O/S-341] | 50 to 100 |  | < 2 | < 2 |  | 
c1ccc(CCCNC2=Nc3ccccc3NC23CCOCC3)cc1 [O/S-343] | 20 to 50 |  | < 2 | < 5 |  | 
Cc1cc(C)cc(CNC2=Nc3ccccc3NC23CCOCC3)c1 [O/S-344] | 20 to 50 |  | < 1 | < 2 |  | 
Fc1cc2c(cc1F)NC1(CCOCC1)C(NCc1ccccc1)=N2 [O/S-346] | 50 to 100 |  | < 0.5 | < 1 |  | 
c1ccc(CCNC2=Nc3ccccc3NC23CCOCC3)cc1 [O/S-347] | 50 to 100 |  | < 5 | < 5 |  | 
CC(NC1=Nc2ccccc2NC12CCOCC2)c1ccccc1 (centres unmarked) [O/S-348] | 50 to 100 |  | < 5 | < 5 |  | 
Clc1cc2c(cc1Cl)NC1(CCSCC1)C(NCc1ccccc1)=N2 [O/S-349] | 20 to 50 |  | < 0.2 | < 0.5 |  | 
CC(C)(C)c1ccc(CNC2=Nc3ccccc3NC23CCOCC3)cc1 [O/S-350] | 20 to 50 |  | < 0.5 | < 0.5 |  | 
Fc1cccc(F)c1CNC1=Nc2ccccc2NC12CCSCC2 [O/S-351] | 50 to 100 |  | < 1 | < 1 |  | 
c1ccc(C(CNC2=Nc3ccccc3NC23CCOCC3)c2ccccc2)cc1 [O/S-352] | 20 to 50 |  | < 1 | < 1 |  | 
CC(CCc1ccccc1)NC1=Nc2ccccc2NC12CCOCC2 (centres unmarked) [O/S-353] | 20 to 50 |  | < 0.5 | < 2 |  | 
Clc1ccc(CNC2=Nc3ccccc3NC23CCOCC3)c(Cl)c1 [O/S-354] | 20 to 50 |  | < 0.5 | < 0.5 |  | 
Fc1ccc(CNC2=Nc3ccccc3NC23CCOCC3)c(F)c1 [O/S-355] | 50 to 100 |  | < 2 | < 2 |  | 
c1ccc(CCCNC2=Nc3ccccc3NC23CCSCC3)cc1 [O/S-356] | 20 to 50 |  | < 2 | < 2 |  | 
Cc1cc(C)cc(CNC2=Nc3ccccc3NC23CCSCC3)c1 [O/S-357] | 10 to 20 |  | < 0.5 | < 0.5 |  | 
c1ccc(CCCCNC2=Nc3ccccc3NC23CCOCC3)cc1 [O/S-358] | 10 to 20 |  | < 2 | < 2 |  | 
Fc1ccc(CNC2=Nc3ccccc3NC23CCSCC3)c(F)c1 [O/S-359] | 50 to 100 |  | > 5 | < 5 |  | 
